How the values were obtained:
[1] = tested on: non-growing S. aureus DSM2569; assay: Dilution-regrowth assay (OD600, start-growth-time) on stationary-phase S. aureus; type: cell-based, Staphylococcus aureus; conditions: S. aureus; for EC50: Staphylococcus aureus, DSM2569, regrowth delay of non-growing bacteria, 1:4 CA-MHB pH 7.4, 24 h treatment, OD600 8 h after dilution, read-out: EC50
Method: The cultures were grown and treated for 24 h in 1:4 CA-MHB (pH 7.4).
This approach allowed us to capture the time when cultures reached a threshold optical density (start-growth-time, SGT[15]).
The cultures were incubated for 24 h in non-baffled Erlenmeyer flasks at 37 °C with shaking at 200 rpm.
For P. aeruginosa and S. aureus, dose–response analysis was conducted in 96-well plates with a 200 μl assay volume, following the procedure used for screening assay validation experiments. […] Stock solutions were prepared and stored according to the manufacturers’ instructions, then diluted in 10% DMSO before use. Cultures were incubated for 24 h in 1:4 diluted CA-MHB medium under the same conditions used for UPEC cultivation. In preliminary experiments, each compound was tested at a concentration of 20 μM in the dilution-regrowth assay with 4 technical replicates. Regrowth was monitored using a microplate reader at 37 °C with continuous shaking, and OD600 was recorded every 20 min. The time at which OD600 exceeded the threshold of 0.12 was recorded as the Start_Growth-Time.
Statistical significance of the drug effects was assessed using a one-way ANOVA followed by Dunnett’s test, comparing each treatment to the drug-free control. Statistical significance of the differences in chemical characteristics between the hit compounds and the Prestwick library was assessed using a Mann–Whitney test. Statistical significance was set at P ≤ 0.05. A five-parameter logistic equation was used for asymmetric sigmoidal curve fitting and for EC50 and IC50 determination. The Venn diagram in Fig. 1F was prepared using BioVenn web application. Characteristics of the chemical and physical properties of Prestwick library compounds were obtained from Supplementary Table S1 from reference. Characteristics of the hit compounds not included in the Prestwick library were retrieved from the PubChem database.

TC7 cells = assay: TC7 cell viability upon drug exposure, MTS assay; type: cell-based; conditions: at the MIC concentrations, 12 h, no bacteria
Method: TC7 cells were grown to confluence in transparent 96-well cell culture plates (TPP) in the same cell culture medium used for the in vitro infection assay. Just prior to the experiment, the medium was discarded, and the cells were washed twice with sterile PBS to remove any traces of medium or dead cells. […] The plate was incubated at 37 °C in a CO2 incubator for 12 h, under the same conditions as the infection assay.
The 3-(4,5-dimethylthiazol-2-yl)-5-(3-carboxymethoxyphenyl)-2-(4-sulfophenyl)-2H-tetrazolium (MTS) assay was performed using the CellTiter 96® AQueous One Solution Cell Proliferation Assay kit (Promega), according to the manufacturer’s instructions. Briefly, 20 μl of CellTiter 96 AQueous One Solution Reagent was added to each well, and the plate was incubated for 2 h at 37 °C in a CO2 incubator. The OD490 of the samples was measured using a Spark multimode plate reader (Tecan). The raw values were normalized to the control wells incubated with infection buffer only. The experiment was performed in duplicate.

[2] = tested on: non-growing P. aeruginosa; assay: Time-dependent effects of drug treatment on regrowth, P. aeruginosa; type: cell-based, Pseudomonas aeruginosa; conditions: 10 µM, OD600 8 h after dilution
Method: (§1) For screening and concentration-dependent characterization of the hit compounds, we used a 24-h incubation to capture their effects, although the actual onset of their activity may occur much sooner. To assess the speed of action, we treated stationary-phase cultures of three organisms with compounds that had previously shown a strong regrowth delay at 10 µM. We selected compounds that, in earlier tests, strongly delayed regrowth, such that diluted cultures remained below an OD600 of 0.12 (indicating no growth) after 6 h for UPEC or 8 h for P. aeruginosa and S. aureus in drug-free medium.
(§2) We collected samples at different times during the 24-h incubation, diluted them 2500-fold, and measured the OD600 after 6 or 8 h of further incubation, respectively. […] Rifampicin acts quickly against non-growing S. aureus, while the effects of the other compounds increase gradually during incubation but are already apparent within the first hour of treatment.
Bacteria were cultivated in 1:4 diluted CA-MHB (40 mM HEPES, pH 7.4) for 24 h. Aliquots were dispensed into a 96-well plate, and compounds were added at a 10 µM concentration. Samples were collected at designated time points, diluted 2500-fold as described for the dilution-regrowth assay, and incubated in standing plates within a humid box at 37 °C. The OD600 of the samples was measured to assess regrowth using a microplate reader (BioTek Synergy H1) after 6 h for UPEC and 8 h for P. aeruginosa and S. aureus. The experiment was performed in triplicates.

non-growing S. aureus = assay: Time-dependent effects of drug treatment on regrowth, S. aureus; type: cell-based, Staphylococcus aureus; conditions: 10 µM, OD600 8 h after dilution
Method: as §1, §2
Bacteria were cultivated in 1:4 diluted CA-MHB (40 mM HEPES, pH 7.4) for 24 h. Aliquots were dispensed into a 96-well plate, and compounds were added at a 10 µM concentration. […] The OD600 of the samples was measured to assess regrowth using a microplate reader (BioTek Synergy H1) after 6 h for UPEC and 8 h for P. aeruginosa and S. aureus. […]

[3] = tested on: SOS response in UPEC CFT073; assay: SOS response induction analysis, pAED2 cda' promoter mScarlet-I reporter; type: cell-based, Escherichia coli; conditions: 20 μM
Method: Since we aimed to test SOS induction in non-growing cultures, it was essential to use a reporter with no leaky expression in the stationary phase. Therefore, we constructed the plasmid pAED2, based on the low copy-number plasmid pSC101, which contains the cda’ promoter in front of the mScarlet-I-encoding reporter gene.
Overnight cultures of CFT073 harboring a reporter plasmid were grown in 3 ml of LB supplemented with 100 µg/ml carbenicillin (Cb), then diluted 1:100 into the medium used for testing. For validation of the pANO1::cda’ reporter, an overnight culture was diluted into CA-MHB (supplemented with 40 mM HEPES, pH 7.4, and 100 µg/ml Cb) and grown to an OD600 ≈ 0.5 at 37 °C with shaking at 200 rpm in an Erlenmeyer flask. […] Empty wells were filled with water. […] The experiment was performed in triplicate.
For analysis of the SOS induction by anti-cancer compounds, the overnight cultures were diluted either into 1:4 diluted CA-MHB (40 mM HEPES, pH 7.4) or LPM (30 mM MES, pH 5.5) that were supplemented with 100 µg/ml Cb. For analysis of the effect on growing bacteria, the cultures were incubated at 37 °C with shaking at 200 rpm in Erlenmeyer flasks for 90 min, to an OD600 ≈ 0.5. Then, 180 μl aliquots were transferred to 96-well plates, and 20 μl of the 200 μM drug solution was added to achieve a final concentration of 20 μM. The plates were incubated in a microplate reader (BioTek Synergy H1) at 37 °C with continuous shaking for 6 h. OD600 and mScarlet fluorescence were recorded throughout the incubation.
For analysis of the effect of anti-cancer compounds on stationary phase- and regrowing bacteria, the cultures were incubated for 24 h at 37 °C with shaking at 200 rpm in Erlenmeyer flasks. […] The samples were incubated for 24 h at 37 °C in standing 1.5 ml tubes. Before and after the drug treatment, 25 μl aliquots were taken and diluted by mixing with 175 μl PBS. OD600 and mScarlet fluorescence were recorded using a microplate reader (BioTek Synergy H1).
After the treatment, stationary-phase bacteria were harvested by centrifugation at 5000 × g for 5 min at 20 °C, washed twice with PBS, and resuspended in 475 μl PBS.

CCCCC(CC)CNC(=N)NC(=N)NCCCCCCNC(=N)NC(=N)NCC(CC)CCCC (stereo not drawn) [Alexidine]
Regrowth, OD600 at 6h or 8h after dilution into drug-free medium (average) ([1]; drug concentration 0.1): 0.539 | Regrowth, OD600 at 6h or 8h after dilution into drug-free medium (average) ([1]; drug concentration 0.5): 0.527 | Regrowth, OD600 at 6h or 8h after dilution into drug-free medium (average) ([1]; drug concentration 2.5): 0.433 | Regrowth, OD600 at 6h or 8h after dilution into drug-free medium (average) ([1]; drug concentration 10): 0.087 | EC50 [1]: 3.28 µM | toxicity to TC7 epithelial cells (TC7 cells): toxic

CN1CCN(c2cc3c(cc2F)c(=O)c(C(=O)O)cn3-c2ccc(F)cc2)CC1 [Difloxacin]
OD600 at 6h or 8h after dilution into drug-free medium (regrowth) ([1]; drug conc 0.1): 0.660 | OD600 at 6h or 8h after dilution into drug-free medium (regrowth) ([1]; drug conc 0.5): 0.630 | OD600 at 6h or 8h after dilution into drug-free medium (regrowth) ([1]; drug conc 2.5): 0.506 | OD600 at 6h or 8h after dilution into drug-free medium (regrowth) ([1]; drug conc 10): 0.371 | EC50 [1]: 2.97 µM | speed of action: regrowth delay over treatment time [2]: act more slowly

CO[C@H]1/C=C/O[C@@]2(C)Oc3c(C)c(O)c4c(O)c(c(/C=N/N5CCN(C)CC5)c(O)c4c3C2=O)NC(=O)/C(C)=C\C=C\[C@H](C)[C@H](O)[C@@H](C)[C@@H](O)[C@@H](C)[C@H](OC(C)=O)[C@@H]1C [Rifampicin]
EC50 [1]: 0.043 µM | speed of action: regrowth delay over treatment time (non-growing S. aureus): acts quickly

CC(=O)[O][Pt]([NH2])([Cl])([Cl])([NH]C1CCCCC1)[O]C(C)=O [Satraplatin]
toxicity to TC7 epithelial cells (TC7 cells): toxic | induction of the SOS response in growing UPEC cultures ([3]; 6 h, MMC, BLE, ECH in 1:4 CA-MHB pH 7.4, PLI, SAT, EVO in LPM pH 5.5): induced the SOS response | growth inhibition of growing UPEC ([3]; LPM pH 5.5, Fig. S7C,D): only a slight growth inhibition | speed of action: regrowth delay over treatment time [2]: act more slowly

C[C@@H]1CN(c2c(F)c(N)c3c(=O)c(C(=O)O)cn(C4CC4)c3c2F)C[C@H](C)N1 [Sparfloxacin]
speed of action: regrowth delay over treatment time [2]: act more slowly

N[C@@H]1[C@H]2CN(c3nc4c(cc3F)c(=O)c(C(=O)O)cn4-c3ccc(F)cc3F)C[C@@H]12 [Trovafloxacin]
speed of action: regrowth delay over treatment time [2]: act more slowly

C=C[C@]1(C)C[C@@H](OC(=O)CSC(C)(C)CNC(=O)[C@H](N)C(C)C)[C@]2(C)[C@H](C)CC[C@]3(CCC(=O)[C@H]32)[C@@H](C)[C@@H]1O [Valnemulin]
toxicity to TC7 epithelial cells (TC7 cells): toxic

Reference: PMC11992225, “Antibacterial compounds against non-growing and intracellular bacteria” (npj Antimicrobials and Resistance, 2025)
